Experimental data published in patent publication US9994587B2, “HIV protease inhibitors” (priority 2014, dated 2018).

target: T1, wildtype HIV-1 protease (Human immunodeficiency virus type 1 group M subtype B, UniProt P04585); assay: Assay for inhibition of microbial expressed HIV protease (Pepcleav); type: biochemical; settings: wild type HIV-1 protease 20 pM, peptide substrate 400 micromolar, pH 5.5; mean of at least two independent experiments
T1 construct: preincubated with the HIV-1 protease (wild type) enzyme in assay buffer; made in house; host or cells: Escherichia coli
Method in brief: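 E. coli-expressed enzyme preincubated with inhibitor 30 min at room temperature in 50 mM sodium acetate pH 5.5, 100 mM NaCl, 0.1% BSA, then 400 micromolar peptide substrate added with 20 picomolar protease (final), 1 h at 30° C. Product quantified by LC-MS/MS peak area after formic acid/indinavir quench.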

Row | SMILES | IC50 [nM]
1 | CS(=O)(=O)N1CCC2(CC1)CNC[C@@H](CCc1c(F)cccc1NC(=O)[C@@H](N)[C@@H](c1ccc(Cl)cc1)c1cc(F)cc(F)c1)O2 [Example 93, (βS)-4-chloro-β-(3,5-difluorophenyl)-N-(3-fluoro-2-{2-[(2R)-9-(methylsulfonyl)-1-oxa-4,9-diazaspiro[5.5]undec-2-yl]ethyl}phenyl)-L-phenylalaninamide] | 11

system: HIV-1 (NL4-3 strain); assay: Viral Kinetics GFP Reporter (ViKinG) assay; type: cell-based; settings: Human immunodeficiency virus 1, NL43; 50% NHS; MT4-GFP cells infected with HIV-1 NL4-3; mean of at least two independent experiments
From the text: Viral Kinetics GFP Reporter (ViKinG) Assay
The ViKinG assay is an in vitro kinetic assay that employs the MT4-gag-GFP reporter cell line (Wang et al., “Assessment of the susceptibility of mutant HIV-1 to antiviral agents.” J Virological Methods 165:230-37 (2010)) to quantify the number of new cells infected in each round of replication. The purpose of the ViKinG assay is to identify agents that inhibit HIV progression. Briefly, HIV infection results in tat transactivation of the stably expressed HIV LTR promoter to drive gagGFP expression. Thus, an increase in the number of GFP-MT4 cells results following HIV infection.
MT4-GFP cells (250,000 cells/ml) were bulk-infected with HIV-1 (NL4-3 strain) at low multiplicity of infection (MOI) in RPMI+10% FBS for 24 hours. Cells were then washed once in RPMI+10% FBS and resuspended RPMI+10% or 50% normal human serum (NHS). Test compounds were serial-diluted in DMSO on an ECHO® liquid handling platform (Labcyte Corp., Sunnyvale, Calif.), along with a triple drug control (integrase, protease and NNRTI compounds). The infected MT4-GFP cells were added to a 384-well poly-D-lysine coated black plate with clear bottom in which the diluted test compounds were placed. The cells were seeded at 8,000 cells per well and the final DMSO concentration was 0.4%. The infected cells (Green GFP cells) were quantified at both 24 and 48 hours post incubation using Acumen® eX3 (TTP Labtech Ltd., Hertfordshire, United Kingdom). Viral reproductive ratio (R0) was determined using the number of infected cells at 48 hours divided by the number of infected cells at 24 hours. Percent viral growth inhibition was calculated by [1−(R−Rtripledrug)/(RDMSO−Rtripledrug)]*100. Compound potency IP or IC50 was determined by a 4-parameter dose response curve analysis.

Row | SMILES | IC50 [nM]
2 | CC(=O)N1CCC2(CC1)CNC[C@@H](CCc1c(F)cccc1NC(=O)[C@@H](N)[C@@H](c1ccc(Cl)cc1)c1cc(F)cc(F)c1)O2 [Example 95, (2S,3S)—N-(2-(2-((R)-9-Acetyl-1-oxa-4,9-diazaspiro[5.5]undecan-2-yl)ethyl)-3-fluorophenyl)-2-amino-3-(4-chlorophenyl)-3-(3,5-difluorophenyl)propanamide] | 150
3 | CS(=O)(=O)N1CCC2(CC1)CNC[C@@H](CCc1c(F)cncc1NC(=O)[C@@H](N)[C@@H](c1ccc(Cl)cc1)c1cccc(OC(F)(F)F)c1)O2 [Example 154, (βS)-β-(4-chlorophenyl)-N-(5-fluoro-4-{2-[(2R)-9-(methylsulfonyl)-1-oxa-4,9-diazaspiro[5.5]undec-2-yl]ethyl}pyridin-3-yl)-3-(trifluoromethoxy)-L-phenylalaninamide] | 300
4 | COC(=O)N[C@H](C(=O)Nc1cncc(F)c1CC[C@@H]1CNCC2(CCN(C(C)=O)CC2)O1)[C@@H](c1ccc(Cl)cc1)c1cc(F)cc(F)c1 [Example 153, methyl{(1S)-2-[(4-{2-[(2R)-9-acetyl-1-oxa-4,9-diazaspiro[5.5]undec-2-yl]ethyl}-5-fluoropyridin-3-yl)amino]-1-[(S)-(4-chlorophenyl)(3,5-difluorophenyl)methyl]-2-oxoethyl}carbamate] | 310
5 | COC(=O)N[C@H](C(=O)Nc1cncc(F)c1CC[C@@H]1CNCC2(CCOCC2)O1)[C@@H](c1ccc(Cl)cc1)C1CCOCC1 [Example 160, methyl[(1S,2R)-2-(4-chlorophenyl)-1-[(4-{2-[(2R)-1,9-dioxa-4-azaspiro[5.5]undec-2-yl]ethyl}-5-fluoropyridin-3-yl)carbamoyl]-2-(tetrahydro-2H-pyran-4-yl)ethyl]carbamate] | 350
6 | N[C@H](C(=O)Nc1cccc(F)c1CC[C@@H]1CNCC2(CCOCC2)O1)[C@@H](c1ccc(Cl)cc1)C1CCOCC1 [Example 159, (βR)-4-chloro-N-(2-{2-[(2R)-1,9-dioxa-4-azaspiro[5.5]undec-2-yl]ethyl}-3-fluorophenyl)-β-(tetrahydro-2H-pyran-4-yl)-L-phenylalaninamide] | 490
7 | COC(=O)N[C@H](C(=O)Nc1cccc(F)c1CC[C@@H]1CNCC2(CCOCC2)O1)[C@@H](c1ccc(Cl)cc1)C1CCOCC1 [Example 161, methyl[(1S,2R)-2-(4-chlorophenyl)-1-[(2-{2-[(2R)-1,9-dioxa-4-azaspiro[5.5]undec-2-yl]ethyl}-3-fluorophenyl)carbamoyl]-2-(tetrahydro-2H-pyran-4-yl)ethyl]carbamate] | 130
8 | CS(=O)(=O)N1CCC2(CC1)CNC[C@@H](CCc1c(F)cccc1NC(=O)[C@@H](N)[C@@H](c1ccc(Cl)cc1)c1cc(F)cc(F)c1)O2 [Example 93, (βS)-4-chloro-β-(3,5-difluorophenyl)-N-(3-fluoro-2-{2-[(2R)-9-(methylsulfonyl)-1-oxa-4,9-diazaspiro[5.5]undec-2-yl]ethyl}phenyl)-L-phenylalaninamide] | 46
9 | CC(=O)N1CCC2(CC1)CNC[C@@H](CCc1c(F)cncc1NC(=O)[C@@H](N)[C@@H](c1ccc(Cl)cc1)c1cc(F)cc(F)c1)O2 [Example 152, (βS)-N-(4-{2-[(2R)-9-acetyl-1-oxa-4,9-diazaspiro[5.5]undec-2-yl]ethyl}-5-fluoropyridin-3-yl)-4-chloro-β-(3,5-difluorophenyl)-L-phenylalaninamide] | 320
10 | COC(=O)N[C@H](C(=O)Nc1cncc(F)c1CC[C@@H]1CNCC2(CCOCC2)O1)[C@@H](c1ccc(Cl)cc1)c1cccc(OC(F)(F)F)c1 [Example 157, methyl{(1S,2S)-2-(4-chlorophenyl)-1-[(4-{2-[(2R)-1,9-dioxa-4-azaspiro[5.5]undec-2-yl]ethyl}-5-fluoropyridin-3-yl)carbamoyl]-2-[3-(trifluoromethoxy)phenyl]ethyl}carbamate] | 210
11 | COC(=O)N[C@H](C(=O)Nc1cccc(F)c1CC[C@@H]1CNCC2(CCOC2)O1)[C@@H](c1ccc(Cl)cc1)c1cc(F)cc(F)c1 (stereo partly drawn) [Example 163, methyl{(1S,2S)-2-(4-chlorophenyl)-2-(3,5-difluorophenyl)-1-[(2-{2-[(7R)-2,6-dioxa-9-azaspiro[4.5]dec-7-yl]ethyl}-3-fluorophenyl)carbamoyl]ethyl}carbamate] | 150
12 | N[C@H](C(=O)Nc1cncc(F)c1CC[C@@H]1CNCC2(CCOCC2)O1)[C@@H](c1ccc(Cl)cc1)c1cccc(OC(F)(F)F)c1 [Example 156, (βS)-4-chloro-N-(4-{2-[(2R)-1,9-dioxa-4-azaspiro[5.5]undec-2-yl]ethyl}-5-fluoropyridin-3-yl)-β-[3-(trifluoromethoxy)phenyl]-L-phenylalaninamide] | 480
13 | N[C@H](C(=O)Nc1cncc(F)c1CC[C@@H]1CNCC2(CCOCC2)O1)[C@@H](c1ccc(Cl)cc1)c1cc(F)cc(F)c1 [Example 155, (βS)-4-chloro-β-(3,5-difluorophenyl)-N-(4-{2-[(2R)-1,9-dioxa-4-azaspiro[5.5]undec-2-yl]ethyl}-5-fluoropyridin-3-yl)-L-phenylalaninamide] | 140
14 | COC(=O)N[C@H](C(=O)Nc1cccc(F)c1CC[C@@H]1CNCC2(CCCC(=O)C2)O1)[C@@H](c1ccc(F)cc1)c1cc(F)cc(F)c1 (stereo partly drawn) [Example 92, Methyl ((1S,2S)-1-(3,5-difluorophenyl)-3-((3-fluoro-2-(2-((2R)-8-oxo-1-oxa-4-azaspiro[5.5]undecan-2-yl)ethyl)phenyl)amino)-1-(4-fluorophenyl)-3-oxopropan-2-yl)carbamate] | 35
15 | N[C@H](C(=O)Nc1cccc(F)c1CC[C@@H]1CNCC2(CCOC2)O1)[C@@H](c1ccc(Cl)cc1)c1cc(F)cc(F)c1 (stereo partly drawn) [Example 162, (βS)-4-chloro-β-(3,5-difluorophenyl)-N-(2-{2-[(7R)-2,6-dioxa-9-azaspiro[4.5]dec-7-yl]ethyl}-3-fluorophenyl)-L-phenylalaninamide] | 180
16 | COC(=O)N[C@H](C(=O)Nc1cccc(F)c1CC[C@@H]1CNCC2(CCN(C(C)=O)CC2)O1)[C@@H](c1ccc(Cl)cc1)c1cc(F)cc(F)c1 [Example 151, methyl{(1S)-2-[(2-{2-[(2R)-9-acetyl-1-oxa-4,9-diazaspiro[5.5]undec-2-yl]ethyl}-3-fluorophenyl)amino]-1-[(S)-(4-chlorophenyl)(3,5-difluorophenyl)methyl]-2-oxoethyl}carbamate] | 170
17 | N[C@H](C(=O)Nc1cncc(F)c1CC[C@@H]1CNCC2(CCOCC2)O1)C(c1ccc(F)cc1)c1ccc(F)cc1 [Example 101, N-(4-{2-[(2R)-1,9-dioxa-4-azaspiro[5.5]undec-2-yl]ethyl}-5-fluoropyridin-3-yl)-4-fluoro-β-(4-fluorophenyl)-L-phenylalaninamide] | 110
18 | N[C@H](C(=O)Nc1cccc(F)c1CC[C@@H]1CNCC2(CCOCC2)O1)[C@@H](c1ccc(Cl)cc1)c1cc(F)cc(F)c1 [Example 96, (βS)-4-chloro-β-(3,5-difluorophenyl)-N-(2-{2-[(2R)-1,9-dioxa-4-azaspiro[5.5]undec-2-yl]ethyl}-3-fluorophenyl)-L-phenylalaninamide] | 80
19 | COC(=O)N[C@H](C(=O)Nc1cccc(F)c1CC[C@@H]1CNCC2(CCOCC2)O1)[C@@H](c1ccc(Cl)cc1)c1cc(F)cc(F)c1 [Example 97, methyl {(1S,2S)-2-(4-chlorophenyl)-2-(3,5-difluorophenyl)-1-[(2-{2-[(2R)-1,9-dioxa-4-azaspiro[5.5]undec-2-yl]ethyl}-3-fluorophenyl)carbamoyl]ethyl}carbamate] | 55
20 | N[C@H](C(=O)Nc1cncc(F)c1CC[C@@H]1CNCC2(CCCC2)O1)C(c1ccc(F)cc1)c1ccc(F)cc1 [Example 150, 4-fluoro-N-(5-fluoro-4-{2-[(7R)-6-oxa-9-azaspiro[4.5]dec-7-yl]ethyl}pyridin-3-yl)-β-(4-fluorophenyl)-L-phenylalaninamide] | 270
21 | N[C@H](C(=O)Nc1cncc(F)c1CC[C@@H]1CNCC2(CCOCC2)O1)[C@@H](c1ccc(Cl)cc1)C1CCOCC1 [Example 158, (βR)-4-chloro-N-(4-{2-[(2R)-1,9-dioxa-4-azaspiro[5.5]undec-2-yl]ethyl}-5-fluoropyridin-3-yl)-β-(tetrahydro-2H-pyran-4-yl)-L-phenylalaninamide] | 390
22 | COC(=O)N[C@H](C(=O)Nc1cncc(F)c1CC[C@@H]1CNCC2(CCCC2)O1)C(c1ccc(F)cc1)c1ccc(F)cc1 [Example 100, methyl {(1S)-1-[bis(4-fluorophenyl)methyl]-2-[(5-fluoro-4-{2-[(7R)-6-oxa-9-azaspiro[4.5]dec-7-yl]ethyl}pyridin-3-yl)amino]-2-oxoethyl}carbamate] | 71
